Data as given in ChEMBL document CHEMBL1153461, “Inhibitory effects of flavonoids isolated from Fragaria ananassa Duch on IgE-mediated degranulation in rat basophilic leukemia RBL-2H3” (Bioorg Med Chem, 2009).
Calls of active or inactive are those of the source. No cut-off for these calls is given here.

Experiments:
[1] = tested on: Radical scavenging activity; assay: Antioxidant activity assessed as radical DPPH scavenging activity; type: functional
[2] = biological target: Tyrosine-protein kinase SYK (Rattus norvegicus) (UniProt Q64725); assay: Inhibition of Syk phosphorylation in DNP-BSA-stimulated rat RBL2H3 cells by Western blotting; type: cell-based; conditions: RBL-2H3
RBL-2H3 [3] = assay: Inhibition of ERK phosphorylation in DNP-BSA-stimulated rat RBL2H3 cells by Western blotting; type: cell-based
RBL-2H3 [4] = assay: Inhibition of JNK phosphorylation in DNP-BSA-stimulated rat RBL2H3 cells by Western blotting; type: cell-based
RBL-2H3 [5] = assay: Inhibition of p38 phosphorylation in DNP-BSA-stimulated rat RBL2H3 cells by Western blotting; type: cell-based
RBL-2H3 [6] = assay: Antiallergic activity in IgE-sensitized rat RBL2H3 cells assessed as inhibition of A-23187-stimulated beta hexaminidase release relative to control; type: functional, cell-based
RBL-2H3 [7] = assay: Antiallergic activity in IgE-sensitized DNP-BSA-stimulated rat RBL2H3 cells assessed as decrease in intracellular Ca2+ level by fluorimetry; type: functional, cell-based
[8] = biological target: T1, 1-phosphatidylinositol 4,5-bisphosphate phosphodiesterase gamma-2 (Rattus norvegicus) (UniProt P24135); assay: Inhibition of PLCgamma2 phosphorylation in DNP-BSA-stimulated rat RBL2H3 cells by Western blotting; type: cell-based; conditions: RBL-2H3
T1 sequence (whole entry): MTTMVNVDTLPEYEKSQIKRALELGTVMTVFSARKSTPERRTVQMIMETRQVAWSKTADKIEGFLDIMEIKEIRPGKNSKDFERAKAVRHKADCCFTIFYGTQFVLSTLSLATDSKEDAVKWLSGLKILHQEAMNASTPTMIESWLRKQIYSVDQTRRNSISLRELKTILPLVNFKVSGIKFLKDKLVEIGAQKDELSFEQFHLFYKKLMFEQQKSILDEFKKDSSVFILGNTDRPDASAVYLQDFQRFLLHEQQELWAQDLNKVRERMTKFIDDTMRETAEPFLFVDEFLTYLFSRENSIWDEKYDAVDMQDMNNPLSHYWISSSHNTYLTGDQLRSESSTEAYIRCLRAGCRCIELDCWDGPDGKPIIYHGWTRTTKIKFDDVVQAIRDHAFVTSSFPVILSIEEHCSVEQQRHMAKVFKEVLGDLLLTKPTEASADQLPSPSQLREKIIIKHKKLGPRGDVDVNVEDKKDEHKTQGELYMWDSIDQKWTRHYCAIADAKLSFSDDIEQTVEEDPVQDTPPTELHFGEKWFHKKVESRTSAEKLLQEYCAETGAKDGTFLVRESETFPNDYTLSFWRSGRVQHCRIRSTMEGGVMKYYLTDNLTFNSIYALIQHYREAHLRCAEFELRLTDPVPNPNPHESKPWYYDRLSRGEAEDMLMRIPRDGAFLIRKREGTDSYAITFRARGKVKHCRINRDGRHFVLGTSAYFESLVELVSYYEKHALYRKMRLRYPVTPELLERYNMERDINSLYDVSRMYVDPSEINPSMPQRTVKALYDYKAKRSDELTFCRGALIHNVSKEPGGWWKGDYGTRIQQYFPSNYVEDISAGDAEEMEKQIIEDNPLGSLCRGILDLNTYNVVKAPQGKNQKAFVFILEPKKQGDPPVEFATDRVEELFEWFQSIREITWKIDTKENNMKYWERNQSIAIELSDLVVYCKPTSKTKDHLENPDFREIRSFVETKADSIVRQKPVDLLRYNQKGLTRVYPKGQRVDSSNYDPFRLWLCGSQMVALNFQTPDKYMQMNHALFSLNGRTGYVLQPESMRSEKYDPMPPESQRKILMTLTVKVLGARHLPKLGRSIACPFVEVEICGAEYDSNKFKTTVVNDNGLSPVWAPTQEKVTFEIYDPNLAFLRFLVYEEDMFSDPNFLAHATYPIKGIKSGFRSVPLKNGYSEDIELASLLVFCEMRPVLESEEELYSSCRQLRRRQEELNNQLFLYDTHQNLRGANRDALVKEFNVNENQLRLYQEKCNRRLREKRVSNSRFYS

[9] = biological target: T2, 1-phosphatidylinositol 4,5-bisphosphate phosphodiesterase gamma-1 (Rattus norvegicus) (UniProt P10686); assay: Inhibition of PLCgamma1 phosphorylation in DNP-BSA-stimulated rat RBL2H3 cells by Western blotting; type: cell-based; conditions: RBL-2H3
T2 sequence (whole entry): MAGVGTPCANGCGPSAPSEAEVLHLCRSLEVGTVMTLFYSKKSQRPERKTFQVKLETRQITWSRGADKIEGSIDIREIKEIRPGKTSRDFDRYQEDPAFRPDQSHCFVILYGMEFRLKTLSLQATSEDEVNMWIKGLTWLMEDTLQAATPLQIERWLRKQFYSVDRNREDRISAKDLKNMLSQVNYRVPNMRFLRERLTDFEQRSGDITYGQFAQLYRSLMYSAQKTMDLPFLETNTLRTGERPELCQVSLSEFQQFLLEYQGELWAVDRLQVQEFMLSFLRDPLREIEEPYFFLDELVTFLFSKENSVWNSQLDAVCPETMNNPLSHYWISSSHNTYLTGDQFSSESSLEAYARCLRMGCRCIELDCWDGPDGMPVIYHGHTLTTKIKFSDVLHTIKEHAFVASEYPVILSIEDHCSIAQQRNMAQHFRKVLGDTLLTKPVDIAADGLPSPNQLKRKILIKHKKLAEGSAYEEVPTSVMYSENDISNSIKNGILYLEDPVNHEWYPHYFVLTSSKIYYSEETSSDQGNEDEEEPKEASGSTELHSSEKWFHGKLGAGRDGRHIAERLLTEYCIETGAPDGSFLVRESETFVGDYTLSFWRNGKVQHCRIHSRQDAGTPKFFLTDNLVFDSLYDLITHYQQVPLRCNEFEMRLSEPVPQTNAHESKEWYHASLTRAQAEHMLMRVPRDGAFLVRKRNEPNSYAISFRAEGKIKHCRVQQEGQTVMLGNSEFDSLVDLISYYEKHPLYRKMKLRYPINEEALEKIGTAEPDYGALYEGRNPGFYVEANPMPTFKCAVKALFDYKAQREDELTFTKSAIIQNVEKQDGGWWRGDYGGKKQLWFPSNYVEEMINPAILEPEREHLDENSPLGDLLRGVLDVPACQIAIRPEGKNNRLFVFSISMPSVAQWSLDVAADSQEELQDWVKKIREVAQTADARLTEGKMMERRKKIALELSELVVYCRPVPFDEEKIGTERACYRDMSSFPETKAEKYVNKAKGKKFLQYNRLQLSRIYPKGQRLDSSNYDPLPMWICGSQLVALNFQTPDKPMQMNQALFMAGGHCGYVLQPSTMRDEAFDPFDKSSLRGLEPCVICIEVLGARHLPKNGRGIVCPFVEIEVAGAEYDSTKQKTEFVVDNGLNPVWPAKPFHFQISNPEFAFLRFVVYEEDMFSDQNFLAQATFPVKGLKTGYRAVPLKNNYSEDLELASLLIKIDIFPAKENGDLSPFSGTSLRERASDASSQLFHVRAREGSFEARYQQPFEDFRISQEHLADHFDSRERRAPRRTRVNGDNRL

RBL-2H3 [10] = assay: Antiallergic activity in IgE-sensitized rat RBL2H3 cells assessed as inhibition of DNP-BSA-stimulated beta hexaminidase release relative to control; type: functional, cell-based
RBL-2H3 [11] = assay: Inhibition of ERK in DNP-BSA-stimulated rat RBL2H3 cells assessed as reduction in cPLA2 phosphorylation by Western blotting; type: cell-based
RBL-2H3 [12] = assay: Antioxidant activity in IgE-sensitized rat RBL2H3 cells assessed as reduction in DNP-BSA-mediated intracellular ROS production at 50 uM after 30 mins by fluorimetry; type: functional, cell-based

Chain of Tyrosine-protein kinase SYK (Rattus norvegicus) (Q64725 whole entry, looked up): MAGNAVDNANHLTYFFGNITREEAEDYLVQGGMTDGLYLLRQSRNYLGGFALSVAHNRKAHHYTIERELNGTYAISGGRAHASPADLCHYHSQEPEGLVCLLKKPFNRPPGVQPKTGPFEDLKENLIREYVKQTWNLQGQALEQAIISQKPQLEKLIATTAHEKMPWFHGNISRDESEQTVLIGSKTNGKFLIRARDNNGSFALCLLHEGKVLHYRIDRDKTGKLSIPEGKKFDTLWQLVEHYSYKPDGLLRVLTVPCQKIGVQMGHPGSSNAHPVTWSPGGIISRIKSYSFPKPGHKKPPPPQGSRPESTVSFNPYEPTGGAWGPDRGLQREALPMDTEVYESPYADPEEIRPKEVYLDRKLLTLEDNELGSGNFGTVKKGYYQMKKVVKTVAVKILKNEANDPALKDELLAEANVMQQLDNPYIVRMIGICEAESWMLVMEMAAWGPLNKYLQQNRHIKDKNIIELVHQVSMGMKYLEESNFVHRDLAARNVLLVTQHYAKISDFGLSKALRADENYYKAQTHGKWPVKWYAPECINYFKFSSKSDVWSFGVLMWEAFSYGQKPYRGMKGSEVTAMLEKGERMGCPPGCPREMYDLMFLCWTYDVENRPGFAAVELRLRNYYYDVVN

Compound	ED50 [1] [µM]	Activity [2]	Activity (RBL-2H3 [3])	Activity (RBL-2H3 [4])	Activity (RBL-2H3 [5])	Activity (RBL-2H3 [6])	Activity (RBL-2H3 [7])	Activity [8]	Activity [9]	inhibition (RBL-2H3 [10])	Activity (RBL-2H3 [11])	Activity (RBL-2H3 [12])
O=c1cc(-c2ccccc2)oc2cc(O)cc(O)c12	< 100	inactive	inactive	inactive	inactive	Active	Active	inactive	inactive	Active	–	–
O=c1c(O)c(-c2ccc(O)cc2)oc2cc(O)cc(O)c12	< 100	Active	Active	Active	Active	Active	Active	Active	Active	Active	Active	–
O=C(/C=C/c1ccc(O)cc1)OC[C@H]1O[C@@H](Oc2c(-c3ccc(O)cc3)oc3cc(O)cc(O)c3c2=O)[C@H](O)[C@@H](O)[C@@H]1O	< 100	inactive	Active	Active	Active	Active	Active	inactive	inactive	Active	Active	Active
O=C1O[C@H]([C@@H](O)CO)C(O)=C1O	18	–	–	–	–	–	–	–	–	–	–	–
VITAMIN E	78	–	–	–	–	–	–	–	–	–	–	–
O=C(O[C@@H]1Cc2c(O)cc(O)cc2O[C@@H]1c1cc(O)c(O)c(O)c1)c1cc(O)c(O)c(O)c1	7	inactive	–	–	–	–	–	inactive	inactive	–	–	–
O=C(/C=C/c1ccccc1)Oc1cc(O)c2c(=O)cc(-c3ccccc3)oc2c1	< 100	inactive	Active	Active	Active	Active	Active	inactive	inactive	Active	Active	Active
